According to the NIST ThermoML archive (doi:10.1016/j.jct.2017.05.006):
Numbers after ± are expanded uncertainties.

Test: osmotic coefficient (dimensionless); mn = molality of the nth substance listed, in mol/kg
Details: 298.15 K, Liquid, isopiestic method

O=[N+]([O-])[O-].O=[N+]([O-])[O-].[Mg+2] [magnesium nitrate] + O
Details | osmotic coefficient
m1 = 0.7578 | 1.015 ± 0.005
m1 = 0.855 | 1.032 ± 0.0058
m1 = 0.9755 | 1.071 ± 0.009
m1 = 1.067 | 1.103 ± 0.0066
m1 = 1.126 | 1.115 ± 0.0072
m1 = 1.15 | 1.122 ± 0.0076
m1 = 1.187 | 1.13 ± 0.013
m1 = 1.191 | 1.135 ± 0.0096
m1 = 1.234 | 1.143 ± 0.008
m1 = 1.309 | 1.172 ± 0.011
m1 = 1.395 | 1.196 ± 0.0091

O=S(=O)([O-])[O-].[Mg+2] [magnesium sulfate] + O
Details | osmotic coefficient
m1 = 1.562 | 0.586 ± 0.016
m1 = 1.585 | 0.593 ± 0.016
m1 = 1.607 | 0.595 ± 0.016
m1 = 1.643 | 0.601 ± 0.015
m1 = 1.7 | 0.609 ± 0.015
m1 = 1.742 | 0.617 ± 0.015
m1 = 1.803 | 0.625 ± 0.015
m1 = 1.884 | 0.641 ± 0.014
m1 = 2.007 | 0.665 ± 0.013
m1 = 2.132 | 0.692 ± 0.012
m1 = 2.243 | 0.714 ± 0.011
m1 = 2.385 | 0.746 ± 0.01
